Key:
Boophilus microplus = Boophilus microplus test (BOOPMI injection); assay type: in vivo; conditions: 20 μg/animal, injection into the abdomen, after 7 days
Description: Boophilus microplus Test (BOOPMI Injection)
(§1) Solvent: Dimethyl Sulphoxide
To produce a suitable preparation of active compound, 10 mg of active compound are mixed with 0.5 ml of solvent and the concentrate is diluted with solvent to the desired concentration. The solution of active compound is injected into the abdomen (Boophilus microplus), and the animals are transferred into dishes and kept in a climatized room. The activity is assessed by […] of fertile eggs.
After 7 days, the effect in % is determined 100% means that none of the ticks has laid any fertile eggs.

[1] = test system: Boophilus microplus strain Parkhurst, SP-resistant; test: Boophilus microplus test (DIP); assay type: in vivo; conditions: 100 ppm, after 7 days
Description: Boophilus microplus Test (DIP) Test Animals: Adult Fat Females of the Boophilus microplus Strain Parkhurst—SP-Resistant) Solvent: Dimethyl Sulphoxide
10 mg of active compound are dissolved in 0.5 ml of dimethyl sulphoxide. To produce a suitable formulation, the active compound solution is diluted with water to the particular desired concentration.
This active compound preparation is pipetted into tubes. 8-10 ticks are transferred into a further tube provided with holes. The tube is dipped into the active compound preparation, with all the ticks being wetted completely. After the liquid has run off, the ticks are transferred to filter discs in plastic dishes and kept in a climatized room. After 7 days, the activity is checked for deposition of fertile eggs. Eggs whose fertility is not visible from the outside are kept in glass tubes in a climatized cupboard until the larvae have hatched. An activity of 100% means that no tick has laid fertile eggs.

Ctenocephalides felis = Ctenocephalides felis oral test (CTECFE); assay type: in vivo; conditions: 100 ppm in citrated cattle blood, after two days
Description: Ctenocephalides Felis Oral Test (CTECFE)
Solvent: 1 Part by Weight of Dimethyl Sulphoxide
To produce a suitable preparation of active compound, 10 mg of active compound are mixed with 0.5 ml of dimethyl sulphoxide. Part of the concentrate is diluted with citrated cattle blood, and the desired concentration is prepared.
About 20 unfed adult fleas (Ctenocephalides felis) are placed into a chamber which is closed at the top and bottom with gauze. A metal cylinder whose bottom end is closed with parafilm is placed onto the chamber. The cylinder contains the blood/active compound preparation, which can be taken up by the fleas through the parafilm membrane. After two days, the kill in % is determined 100% means that all fleas have been killed; 0% means that none of the fleas have been killed.

Lucilia cuprina larvae = test: Lucilia cuprina test (LUCICU); assay type: in vivo; conditions: 100 ppm, after 2 days
Description: Lucilia cuprina Test (LUCICU)
as §1
(§2) To produce a suitable preparation of active compound, 10 mg of active compound are mixed with 0.5 ml of dimethyl sulphoxide and the concentrate is diluted with water to the desired concentration. Vessels containing horsemeat treated with the active compound preparation of the desired concentration are populated with about 20 Lucilia cuprina larvae.
After 2 days, the kill in % is determined. 100% means that all larvae have been killed; 0% means that none of the larvae have been killed.

Musca domestica = Musca domestica test (MUSCDO); assay type: in vivo; conditions: 100 ppm, after 2 days
Description: Musca domestica Test (MUSCDO)
as §1
as §2, with “a sponge” for “horsemeat”, “adult Musca domestica.” for “about 20 Lucilia cuprina larvae.”
After 2 days, the kill in % is determined 100% means that all flies have been killed; 0% means that none of the flies have been killed.

[2] = test system: cat fleas (Ctenocephalides felis, fully sensitive laboratory strain); test: Contact test against fleas in-vitro (CTECFE contact); assay type: in vivo; conditions: 500 g/ha, after 48 h
In short: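 Test tubes coated from acetone solutions by rotation, top concentration 500 g/ha (500 μg/dm^2) on tube surface, serial 1:5 dilutions. 10-20 CO2-anesthetized adult fleas held at room temperature for 24 and 48 h. Activity scored versus acetone control: knock-down or death of all fleas = 100%.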

[3] = test system: larvae of the mustard beetle (Phaedon cochleariae); test: Phaedon test (PHAECO spray treatment); assay type: in vivo; conditions: 500 g/ha, spray, after 7 days
In short: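 Mustard beetle larvae were placed on dried Brassica pekinensis leaf discs previously spray-treated with test compound; formulation used acetone and dimethylformamide solvents plus alkylaryl polyglycol ether emulsifier, diluted with emulsifier-containing water.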

[4] = test system: caterpillars of the army worm (Spodoptera frugiperda); test: Spodoptera frugiperda test (SPODFR spray treatment); assay type: in vivo; conditions: 500 g/ha, spray, after 7 days
In short: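 Activity in % read 7 days after armyworm caterpillars were placed on dried, sprayed Zea mays leaf discs; 0% means none killed. Spray prepared from an acetone/DMF concentrate with emulsifier, diluted with emulsifier-containing water.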

[5] = test system: green peach aphid (Myzus persicae); test: Myzus test (MYZUPE spray treatment); assay type: in vivo; conditions: 500 g/ha, spray, after 6 days
In short: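 Activity read as % aphid kill 6 days after treatment (0% = none killed). Compound formulated in acetone and dimethylformamide plus alkylaryl polyglycol ether, diluted in water and sprayed onto infested Brassica pekinensis leaf discs.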

[6] = test system: greenhouse red spider mite (Tetranychus urticae); test: Tetranychus test; OP-resistant (TETRUR spray treatment); assay type: in vivo; conditions: 500 g/ha, spray, after 6 days
In short: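 Activity, as % of mites killed (0–100%), was assessed 6 days after spraying. The spray was compound formulated with acetone, DMF and emulsifier, then diluted in water. It was applied to Phaseolus vulgaris leaf discs carrying every life stage of an OP-resistant spider mite strain.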

[7] = test system: Anopheles gambiae (homocygus kdr); test: Anopheles test (ANPHGB surface treatment); assay type: in vivo; conditions: for knock-down activity: 100 mg/m^2, two hours after contact, exposition 30 minutes
In short: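 Adult mosquitoes held 30 min on a glazed tile treated with a dried 2 mg/ml acetone solution of compound. Mortality scored at 24 h (100% = all killed), knock-down percentage at 2 h post-contact.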

Aedes aegypti = test: Aedes test (AEDSAE surface treatment); assay type: in vivo; conditions: for knock-down activity: 100 mg/m^2, two hours after contact, exposition 30 minutes
In short: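 Adults were held 30 minutes on glazed tiles carrying a dried acetone deposit of compound (2 mg/ml solution). Readouts: percent knock-down 2 h after contact, percent mortality 24 h after contact, where 0% means no mosquitoes killed.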

[8] = logP determination by HPLC on reversed-phase columns (C18), LC-MS neutral; assay type: physicochemical; conditions: pH 7.8, HPLC on C18, calibration with alkan-2-ones
Culex quinquefasciatus = test: whole plant or invertebrate; assay type: in vivo; conditions: 100 mg/m^2, two hours after contact, exposition 30 minutes
Description: Culex Test (CULXFA Surface Treatment) Solvent: Acetone
To produce a suitable preparation of active compound, the active compound is dissolved in acetone (2 mg/ml). The active compound preparation is pipetted onto a glazed tile and, after drying, adult mosquitoes of the species Culex quinquefasciatus are placed onto the treated tile. The exposition time is 30 minutes.
Two hours after contact to the treated surface, the knock-down proportion of the test animals in % is determined.
24 hours after contact to the treated surface, the mortality in % is determined. Here, 100% means that all mosquitoes have been killed; 0% means that none of the mosquitoes has been killed.

| Structure (SMILES) | activity (100% = none of the ticks has laid any fertile eggs) (Boophilus microplus) | activity (100% = no tick has laid fertile eggs) [1] | activity (kill in %) (Ctenocephalides felis) | activity (kill in %) (Lucilia cuprina larvae) | activity (kill in %) (Musca domestica) | activity against cat fleas [2] | activity (beetle larvae killed) [3] | activity (caterpillars killed) [4] | activity (aphids killed) [5] | activity (spider mites killed) [6] | knock-down activity [7] | knock-down activity (Aedes aegypti) | pest or weed control at 500 g/ha ([3]; Phaedon cochleariae, 168 h, read-out: activity (beetle larvae killed)) | pest or weed control at 500 g/ha ([4]; Spodoptera frugiperda, 168 h, read-out: activity (caterpillars killed)) | pest or weed control at 500 g/ha ([5]; Myzus persicae, 144 h, read-out: activity (aphids killed)) | pest or weed control at 500 g/ha ([6]; Tetranychus urticae, 144 h, read-out: activity (spider mites killed)) | mortality at 100 mg/m2 ([7]; Anopheles gambiae, read-out: activity (mortality in %)) | mortality at 100 mg/m2 (Aedes aegypti; Aedes aegypti, read-out: activity (mortality in %)) | logP [8] | knock-down activity (Culex quinquefasciatus) |
| --- | --- | --- | --- | --- | --- | --- | --- | --- | --- | --- | --- | --- | --- | --- | --- | --- | --- | --- | --- | --- |
| Cc1ccc(N=C2C(=CSc3ccccc3)C(C)c3ccccc32)cc1 (mixture of isomers) [Example 1-5] | 100% | 100% | 100% | 100% | 100% | 100% | 100% | 100% | 100% | 100% | 100% | – | – | – | – | – | – | – | – | – |
| Cc1ccc(N=C2C(=CSc3ccc(F)cc3)CCc3sccc32)cc1 (mixture of isomers) [Example 1-26] | 100% | 100% | 95% | 100% | 100% | 100% | 100% | 100% | 100% | 100% | – | – | – | – | – | – | – | – | – | – |
| Cc1ccc(N=C2C(=CSc3ccc(F)cc3)C(C)c3cccc(F)c32)cc1 (mixture of isomers) [Example 1-27] | 100% | 100% | 100% | 100% | 100% | 100% | 100% | 100% | 100% | 100% | 100% | 100% | – | – | – | – | – | – | – | – |
| Cc1ccc(N=C2C(=CSc3ccc(F)cc3)CCc3cc(F)cc(F)c32)cc1 (mixture of isomers) [Example 1-33] | 100% | 100% | 95% | 100% | 80% | 100% | 100% | 100% | 80% | – | – | – | – | – | – | – | – | – | – | – |
| CCC1C(=CSc2ccc(F)cc2)C(=Nc2ccc(C)cc2)c2ccccc21 (mixture of isomers) [Example 1-37] | 100% | – | 100% | 100% | 90% | 100% | 100% | 100% | 100% | 100% | – | – | – | – | – | – | – | – | – | – |
| Cc1ccc(N=C2/C(=C/Sc3ccccc3)CCc3ccccc32)cc1 [Example 1-1] | 100% | 100% | 80% | 100% | – | 100% | – | – | – | – | 100% | 100% | 100% | 100% | 100% | 100% | 100% | 100% | – | – |
| COc1ccc(N=C2C(=CSc3ccccc3)CCc3ccccc32)cc1 [Example 1-10] | 100% | – | 80% | 90% | 100% | 100% | 100% | 100% | – | 100% | 95% | – | – | – | – | – | – | – | – | – |
| CC1C(=CSc2ccccc2)C(=Nc2ccc(Cl)cc2)c2ccccc21 (stereo not shown) [Example 1-11] | – | – | – | – | – | – | – | – | – | – | – | – | – | – | – | – | – | – | LC-MS (neutral)*: logP = 6.38, (M + H)^+ = 376 | – |
| Cc1ccc(N=C2C(=CSc3ccc(F)cc3)CCc3occc32)cc1 [Example 1-29] | – | 100% | 80% | 100% | 100% | 100% | 100% | 100% | 100% | 100% | – | 90% | – | – | – | – | – | – | – | – |
| Cc1ccc(N=C2C(=CSc3ccc(F)cc3)COc3ccccc32)cc1 [Example 1-36] | 100% | – | 90% | 100% | – | 100% | 100% | 100% | 100% | 100% | 100% | 100% | – | – | – | – | – | – | – | 100% |
| Cc1ccc(N=C2C(=CSc3ccc(F)cc3)CCc3cc(C)ccc32)cc1 [Example 1-46] | – | – | – | – | – | 100% | 100% | 100% | 100% | 100% | 100% | 100% | – | – | – | – | – | – | – | 100% |
| CC(=O)Nc1ccc2c(c1)CCC(=CSc1ccc(F)cc1)C2=Nc1ccc(C)cc1 [Example 1-48] | – | – | – | – | – | – | – | – | – | – | – | – | – | – | – | – | – | – | LC-MS (neutral)*: logP = 4.64, (M + H)^+ = 431. | – |
| Cc1ccc(N=C2C(=CSc3ccc(F)cc3)COc3cc(F)ccc32)cc1 [Example 1-58] | – | – | – | – | – | 100% | 100% | 100% | 100% | 100% | 100% | 100% | – | – | – | – | – | – | – | 100% |

Reference: US9055743B2, “Alpha, beta-unsaturated imines” (BAYER INTELLECTUAL PROPERTY GMBH, priority 2010, dated 2015)
